pIC50: −log10 of the molar value. Like-named read-outs stand apart in the source and are kept apart here.
Key:
[1] = Cell cytotoxicity assay, cell growth; assay type: cell-based; conditions: human; CEM cells, three-day growth, 50% inhibition of cell growth
Description: (§1) Cell Cytotoxicity Assay. CEM cells are grown at 2.5×10^4 Cells per ml in RPM1 media supplemented with 20% dialyzed FBS. When cells double, they are seeded in 24-well plates at 1 ml/well. The tested drugs are added at various diluted dosage. After three-day growth at 37° C., 5% CO2, the cells are harvested and counted by using Coulter counter. Cytotoxicity IC50 is designated as the dosage that inhibits 50% of the cell growth compared to the untreated controls.

HSV-1 = test: Virus growth inhibition assay, HSV plaque reduction; assay type: cell-based, Herpes Simplex virus
Description: (§2) Virus growth inhibition assay. Confluent virus permissive cells in 12-well plates are inoculated with the virus at 30˜40 pfu/well. After one-hour adsorption at 37° C., the inoculum is replaced with the medium containing 10% of dialyzed FBS and tested compounds at various dosages. Each dosage is duplicated. The infected cells are harvested at 72-hour postinfection. For HSV virus, the plaque reduction assay is performed to measure the virus growth. ID50 is designated as the dosage that inhibits 50% of plaque formation compared with untreated controls. For VZV and EBV, the infected cells are lysed by “freeze-thaw” and the lysate is treated with protease K and RNase. The DNA is then subjected to slot-blot as described previous (Yao, et al., Biochem. Pharmacol. 51: 941-947). The viral DNA is detected by hybridization with ^32P-labeled DNA fragment of viral specific gene. Autoradiographic results are quantitated by Personal Densitometer SI (Molecular Dynamics., Sunnyvale, Calif.). The same membrane is stripped and rehybridized with human β-actin gene fragment. The viral DNA amount is subsequently normalized by viral DNA/human actin DNA. The concentration of the tested compounds, which inhibit 50% of viral DNA synthesis compared to untreated control, is defined as IC50.

VZV = test: Virus growth inhibition assay, VZV viral DNA slot-blot; assay type: cell-based, Varicella-Zoster virus; conditions: read-out: IC50 VZV
Description: Virus growth inhibition assay. Confluent virus permissive cells in 12-well plates are inoculated with the virus at 30˜40 pfu/well. After one-hour adsorption at 37° C., the inoculum is replaced with the medium containing 10% of dialyzed FBS and tested compounds at various dosages. Each dosage is duplicated. The infected cells are harvested at 72-hour postinfection. For HSV virus, the plaque reduction assay is performed to measure the virus growth. […] For VZV and EBV, the infected cells are lysed by “freeze-thaw” and the lysate is treated with protease K and RNase. […] The viral DNA is detected by hybridization with ^32P-labeled DNA fragment of viral specific gene. Autoradiographic results are quantitated by Personal Densitometer SI (Molecular Dynamics., Sunnyvale, Calif.). The same membrane is stripped and rehybridized with human β-actin gene fragment. The viral DNA amount is subsequently normalized by viral DNA/human actin DNA.

[2] = tested on: FU catabolite amino acids; test: FU metabolites by 19F-NMR in mice after pretreatment with BV analog; assay type: in vivo; conditions: BDF1 mice, 20 mg/kg p.o. two hours before FU 200 mg/kg i.p., one hour after FU
Description: Two hours after injection, 5-Flurouracil (FU) at a concentration of 200 mg/kg was administered i.p. […] Consequently, the coadministration of any one or more of the β-L nucleoside compounds along with FU or an FU produrg in the treatment of cancer to enhance the effectiveness of these agents is meritorious and unexpected.

[3] = in humans; generally ranging from about 20-30 minutes; cited from earlier work
CEM cells = test: Cell cytotoxicity assay, cell growth; assay type: cell-based; conditions: three-day growth, 50% inhibition of cell growth
Description: as §1

EBV = test: Anti-EBV activity, EBV DNA slot blot in H1 cells; assay type: cell-based, Epstein Barr virus; conditions: concentration that inhibits 50% of virus growth, 5 days
Description: as §2
A high yield of EBV producing cell line H1 derived from human P3HR1 cells was used in this study. Cells were cultured in RPMI medium supplemented with 10% dialyzed fetal bovine serum and 100 μg/ml Kanamycin and were grown at 37° C. in a humidified incubator containing 5% CO2.
H1 cells were maintained in logarithmic phase of growth for two days prior to the initiation of treatment. The H1 cells were seeded in 24 well plates at the density of 2×10^5 cells per well in 2 ml of fresh medium with or without drug treatment and were incubated at 37° C. for 5 days. Following the period of drug treatment the cells were pelleted and used to determine the inhibitory effect of drug on EBV DNA by slot blot assay.
A total of 4×10^5 H1 cells treated with the various nucleoside analogs (as set forth below) were lysed in 400 μl of 10 mM Tris-HCl (pH 7.5) solution by freezing and thawing 3 times. The cell lysate was treated with RNAase A (at a final concentration of 50 μg/ml) at 37° C. for 30 minutes and then with proteinase K (at a final concentration of 100 μg/ml) at 55° C. for 2 hr. The samples were denatured by adjusting the final concentration to 0.4N NaOH/10 mM EDTA at pH 8.2. After heating for 10 minutes in a water bath at 100° C., the samples were spotted onto positively charged nylon membrane using a manifold. […] The amount of EBV DNA in treated H1 cells was determined according to the ratio of EBV DNA to Alu DNA in comparison with non-treatment control H1 cells. […]

[4] = Human alphaherpesvirus 1, concentration that inhibits 50% of virus growth
[5] = Human alphaherpesvirus 3, concentration that inhibits 50% of virus growth, viral DNA, 72-hour postinfection
[6] = concentration that inhibits 50% of virus growth, viral DNA, 72-hour postinfection
[7] = concentration that inhibits 50% of virus growth
[8] = human gammaherpesvirus 4, 120 h

| pIC50 (VZV; [5]) | Structure (SMILES) | IC50 at 3 days [1] [µM] | pIC50 (HSV-1; [4]) | further results |
| --- | --- | --- | --- | --- |
| – | Nc1nc2c(ncn2COCCO)c(=O)[nH]1 [Acyclovir, reference compound] | > 100 | 4.87 | – |
| – | O=c1[nH]c(=O)n([C@H]2C[C@H](O)[C@@H](CO)O2)cc1/C=C/Br [D-BVDU, (E)-5-(2-bromovinyl)-2′-deoxyuridine, reference compound] | > 100 | – | pIC50 (VZV; Human alphaherpesvirus 3, 72 h): 7.30 |
| 9.15 | O=c1[nH]c(=O)n([C@@H]2O[C@H](CO)[C@@H](O)[C@@H]2O)cc1/C=C/Br [D-ara-BVU, 1-β-D-arabinofuranosyl-(E)-5-(2-bromovinyl)uracil, reference compound] | > 100 | – | effect on FU catabolite amino acids / break-down of FU (in words) [2]: decreased from catabolite amino acids |
| – | O=c1[nH]cc(F)c(=O)[nH]1 [FU, 5-fluorouracil] | – | – | half-life of FU [3]: approximately 25 minutes |
| < 4.52 | O=c1[nH]c(=O)n([C@H]2O[C@@H](CO)[C@H](O)[C@@H]2F)cc1/C=C/Br [L-BV2′F-dU, E-5-(2-Bromovinyl)-1-(2-deoxy-2-fluoro-β-L-ribofuranosyl) uracil] | > 100 | < 4.30 | – |
| – | O=c1[nH]c(=O)n([C@@H]2C[C@@H](O)[C@H](CO)O2)cc1/C=C/Br [L-BVDU, E-5-(2-Bromovinyl)-2′-deoxy-L-uridine] | – | – | pIC50 (CEM cells): < 4.00; pIC50 (VZV; [6]): < 4.00 |
| – | O=c1[nH]c(=O)n([C@@H]2CO[C@H](CO)O2)cc1Br [L-BrOddU, reference compound] | – | – | pIC50 (EBV): 6.70; pIC50 (CEM cells): < 4.00; pIC50 (HSV-1; [7]): < 4.00; pIC50 (VZV; [6]): < 4.52 |
| – | O=c1[nH]c(=O)n([C@@H]2CO[C@H](CO)O2)cc1I [L-IOddU, reference compound] | – | – | pIC50 (EBV): 7.00; pIC50 (CEM cells): < 4.00; pIC50 (HSV-1; [7]): 4.15; pIC50 (VZV; [6]): 4.77 |
| < 4.52 | O=c1[nH]c(=O)n([C@H]2CO[C@H](CO)O2)cc1/C=C/Cl [L-α-ClVOddU, (2S,5R)-E-5-(2-Chlorovinyl)-1-[2-(hydroxymethyl)-1,3-dioxolan-5-yl]uracil] | > 100 | < 4.30 | melting point: 101 to 102 °C |
| < 4.52 | O=c1[nH]c(=O)n([C@H]2CO[C@H](CO)O2)cc1/C=C/I [L-α-IVOddU, (2S,5R)-E-5-(2-Iodovinyl)-1-[2-(hydroxymethyl)-1,3-dioxolan-5-yl]uracil] | > 100 | < 4.30 | melting point: 60 °C (dec.) |
| 4.90 | O=c1[nH]c(=O)n([C@@H]2CS[C@H](CO)O2)cc1/C=C/Br [L-β-BVSddU, (2R,5S)-E-5-(2-Bromovinyl)-1-(2-hydroxymethyl-1,3-oxathiolan-5-yl)uracil] | > 100 | – | pIC50 (EBV; [8]): < 4.30 |
| 6.82 | O=c1[nH]c(=O)n([C@@H]2CO[C@H](CO)O2)cc1/C=C/Cl [L-β-ClVOdd, (2S,5S)-E-5-(2-Chlorovinyl)-1-[2-(hydroxymethyl)-1,3-dioxolan-5-yl]uracil] | > 100 | 4.74 | – |
| 7.46 | O=c1[nH]c(=O)n([C@@H]2CO[C@H](CO)O2)cc1/C=C/I [L-β-IVOddU, (2S,5S)-E-5-(2-Iodovinyl)-1-[2-(hydroxymethyl)-1,3-dioxolan-5-yl]uracil] | > 100 | 4.48 | pIC50 (EBV; [8]): 5.39; melting point: 162 °C (dec.) |
| – | Nc1nc(O)c2ncn(CCC(CO)CO)c2n1 [Pencyclovir, reference compound] | – | – | pIC50 (CEM cells): < 4.00; pIC50 (HSV-1; [7]): 4.74; pIC50 (VZV; [6]): 6.85 |

| Structure (SMILES) | pIC50 (VZV; [5]) | IC50 at 3 days [1] [µM] | pIC50 (HSV-1; [4]) | further results |
| --- | --- | --- | --- | --- |
| O=c1[nH]c(=O)n([C@@H]2CO[C@@H](CO)O2)cc1/C=C/Br [D-α-BVOddU, (2R,5S)-E-5-(2-Bromovinyl)-1-[2-(hydroxymethyl)-1,3-dioxolan-5-yl]uracil] | < 4.52 | > 100 | < 4.30 | – |
| O=c1[nH]c(=O)n([C@H]2CO[C@@H](CO)O2)cc1/C=C/Br [D-β-BVOddU, (2R,5R)-E-5-(2-Bromovinyl)-1-[2-(hydroxymethyl)-1,3-dioxolan-5-yl]uracil] | 4.59 | > 100 | < 4.30 | – |
| O=c1[nH]c(=O)n([C@H]2CO[C@H](CO)O2)cc1/C=C/Br [L-α-BVOddU, (2S,5R)-E-5-(2-Bromovinyl)-1-[2-(hydroxymethyl)-1,3-dioxolan-5-yl]uracil] | < 4.52 | > 100 | < 4.30 | – |
| O=c1[nH]c(=O)n([C@@H]2CO[C@H](CO)O2)cc1/C=C/Br [L-β-BVOddU, (2S,5S)-E-5-(2-Bromovinyl)-1-[2-(hydroxymethyl)-1,3-dioxolan-5-yl]uracil] | 7.15 | > 100 | 4.44 | inhibition of FU catabolite amino acids [2]: ~100% |
